According to patent US20260265321A1, “PEPTIDE AND POLYPEPTIDE INHIBITING THE NF-KB SIGNALING PATHWAY” (Centre National de la Recherche Scientifique, priority 2023, published 2026):
Residues, ends and D or L forms follow the SMILES beside them.

Biological target: T1, IKKα/β heterodimer (Homo sapiens, UniProt O14920+O15111, S176E/S177E/S180E/S181E)
T1 construct: co-expression of 6×His-IKKβ(1-669) EE and Strep-IKKα(10-667) EE constructs in insect cells; Strep (followed by TEV site) (N); 6×His (followed by TEV site) (N); made in house; host or cells: Sf21 insect cells (co-infection with two baculoviruses)
T1 sequence (O15111 10-667 S176E/S180E): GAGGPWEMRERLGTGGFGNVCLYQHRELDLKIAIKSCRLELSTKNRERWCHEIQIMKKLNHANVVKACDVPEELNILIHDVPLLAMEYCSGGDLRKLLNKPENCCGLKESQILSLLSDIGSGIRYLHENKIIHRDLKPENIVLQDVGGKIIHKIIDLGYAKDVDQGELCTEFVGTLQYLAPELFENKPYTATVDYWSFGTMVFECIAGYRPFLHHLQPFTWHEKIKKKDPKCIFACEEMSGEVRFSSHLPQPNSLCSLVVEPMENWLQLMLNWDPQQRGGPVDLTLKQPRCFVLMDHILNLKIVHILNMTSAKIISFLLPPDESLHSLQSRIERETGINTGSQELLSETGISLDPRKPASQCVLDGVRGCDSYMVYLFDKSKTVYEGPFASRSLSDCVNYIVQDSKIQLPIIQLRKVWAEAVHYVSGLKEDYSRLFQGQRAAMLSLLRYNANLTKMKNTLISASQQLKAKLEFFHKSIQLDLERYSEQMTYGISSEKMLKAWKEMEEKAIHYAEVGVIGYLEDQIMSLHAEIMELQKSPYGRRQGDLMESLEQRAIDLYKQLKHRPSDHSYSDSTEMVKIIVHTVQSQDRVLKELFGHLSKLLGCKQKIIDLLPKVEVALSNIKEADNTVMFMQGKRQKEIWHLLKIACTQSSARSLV
T1 sequence (O14920 1-669 S177E/S181E): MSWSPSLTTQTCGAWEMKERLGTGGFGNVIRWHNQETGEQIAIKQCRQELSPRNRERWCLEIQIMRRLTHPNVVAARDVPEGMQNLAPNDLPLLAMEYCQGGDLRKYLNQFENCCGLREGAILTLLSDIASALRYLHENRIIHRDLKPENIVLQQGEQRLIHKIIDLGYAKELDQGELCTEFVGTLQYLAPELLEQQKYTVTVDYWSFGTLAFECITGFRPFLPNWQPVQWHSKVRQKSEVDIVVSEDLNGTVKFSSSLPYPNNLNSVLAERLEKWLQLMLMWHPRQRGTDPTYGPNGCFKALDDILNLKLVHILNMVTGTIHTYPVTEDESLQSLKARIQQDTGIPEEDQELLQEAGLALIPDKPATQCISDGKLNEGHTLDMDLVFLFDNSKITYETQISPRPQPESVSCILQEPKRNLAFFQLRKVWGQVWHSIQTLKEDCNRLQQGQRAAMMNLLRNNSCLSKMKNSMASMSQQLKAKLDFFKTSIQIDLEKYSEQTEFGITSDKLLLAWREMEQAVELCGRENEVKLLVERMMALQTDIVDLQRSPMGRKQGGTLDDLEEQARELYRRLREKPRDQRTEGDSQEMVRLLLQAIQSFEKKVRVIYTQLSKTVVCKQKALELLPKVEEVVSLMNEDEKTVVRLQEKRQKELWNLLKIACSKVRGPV
Assay: MBP-pulldown of reconstituted IKKα/β heterodimer
Format: binding
Protocol: IKKα/β heterodimer. SF21 cells expressing the Strep-IKKα(10-667) EE and 6×His-IKKβ(1-669) EE proteins were resuspended in lysis buffer (100 mM Tris-HCl pH 8.0, 150 mM NaCl, 10% glycerol, 2 mM DTT, 2 μg/ml DNaseI, 0.2 μg/ml RNAse, Roche Complete protease inhibitor cocktail) and lysed by mild sonication. Lysates were centrifuged at 14500 g for 45 minutes at 4° C. The supernatants were applied by gravity flow to Strep-Tactin XT 4F resin (IBA-lifesciences) pre-equilibrated in wash buffer (100 mM Tris-HCl pH 8, 150 mM NaCl, 10% glycerol, 1 mM EDTA, and 2 mM DTT). The resin was extensively washed with wash buffer and the proteins eluted with elution buffer (100 mM Tris-HCl pH 8, 150 mM NaCl, 10% glycerol, 2 mM DTT, and 50 mM biotin). The eluate was then applied to Ni^2+-NTA resin, which was washed and eluted as described above for the IKK homodimers. IKKα/β heterodimer samples were then concentrated and incubated in presence of 1 mM ATP plus additives (see above) for 1 hour on ice. Finally, samples were purified by gel filtration chromatography using a Superdex 200 10/30 column (GE Healthcare) pre-equilibrated in gel filtration buffer 1 (20 mM Tris-HCl PH 8.0, 150 mM NaCl, 5% Glycerol, 2 mM DTT).
Experiments were performed in PD buffer (20 mM Tris pH 8.0, 150 mM NaCl, 2 mM DTT). […] Quantification of band intensity was done using the Image J software. […]

SMILES: CC(C)C[C@H](NC(=O)[C@@H](NC(=O)[C@H](CC(C)C)NC(=O)[C@H](CCCNC(=N)N)NC(=O)[C@H](CCC(N)=O)NC(=O)CNC(=O)CNC(=O)[C@H](Cc1ccccc1)NC(=O)[C@@H](NC(=O)[C@H](CS)NC(=O)[C@H](CC(=O)O)NC(=O)[C@H](CC(=O)O)NC(=O)[C@H](Cc1ccc(O)cc1)NC(=O)[C@@H]1CCCN1C(=O)[C@H](CC(C)C)NC(=O)[C@H](CCC(=O)O)NC(=O)[C@H](CC(=O)O)NC(=O)[C@H](CCC(=O)O)NC(=O)[C@@H](NC(=O)[C@H](Cc1ccccc1)NC(=O)[C@@H](N)CCC(=O)O)[C@@H](C)O)C(C)C)[C@@H](C)O)C(=O)O [IκBα pep] (H-EFTEDELPYDDCVFGGQRLTL-OH; N-terminus and C-terminus assumed)
- binding of IKKα/β heterodimer by pulldown: efficiently binds
